{"source": "patent US8465983B1", "about": "“Detection and delivery systems utilizing supported lipid bilayers” (priority 2005, dated 2013)", "key": {"[1]": {"experiment": "Lipid bilayers on MS-PPE as barriers to superquenching by AQS, flow cytometry", "conditions": "10 μM AQS", "method": "FIG. 15 graphically illustrates flow cytometric evaluations of different lipids that involved formation of supported lipid bilayers on MS-PPE for the purpose of forming a barrier to quenching by AQS. Lipids tested were 2 mM DPPC, 1 mM egg-PC, and 2 mM DMPG. Fluorescence was normalized to that of MS-PPE without lipids and in absence of AQS. −AQS and +AQS refer to absence and presence of 10 μM AQS. The errors bars represent SD of means of normalized histograms obtained for triplicates.\nSmall unilamellar vesicles (SUVs) were prepared using a 2 mM solution of DPPC, 1 mM egg-PC, or 2 mM DMPG in chloroform. The lipid was dried by nitrogen gas followed by vacuum. The dried lipid was resuspended in phosphate buffer saline (PBS), pH 7.4, and incubated at 37° C. for 10 min, then sonicated to optical clarity in a sonication bath (Branson Cleaning Equipment Co., Shelton, Conn.).\nLipid bilayers were assembled on microspheres as previously described (Buranda et al. Langmuir 19:1654-1663 (2003); Bayerl & Bloom, Biophys J 58:357-362 (1990)). […]\nBead suspensions of 2.5×10^5 PPE-coated microspheres in 200 μL PBS were analyzed using a FACScan flow cytometer (Becton-Dickinson, Sunnyvale, Calif.) with excitation at 488 nm. Fluorescence signals were acquired on the FL-1 channel (525 nm) using log amplification and analyzed with the CellQuest software."}, "[2]": {"test_system": "90:10 (molar ratio) EPC and DMPG bilayer on porous silica beads", "experiment": "Suspension study: melittin on EPC/DMPG 90:10 bilayers on fluorescein-containing porous beads", "assay_type": "biochemical", "conditions": "highly concentrated melittin, 25° C.", "method": "(§1) Experimental procedures were similar to the TRITON X-100 detergent based analysis. For experiments with α-toxin, three different toxin concentrations: 15, 45 and 250 μg/mL were used at 37° C. and 25° C. Beads coated with EPC were used. In the experiments with melittin, 220 μM melittin was used with beads coated with either 100% EPC, 10:90 (molar ratio) mixture of DMPG and EPC or an 80:20 mixture of DMPG and DMPC. All melittin experiments were conducted at 25° C.\nThe interaction of highly concentrated melittin solutions was examined with membranes supported on fluorescein containing porous beads, where the membranes contained 100% EPC or a 90:10 mixture (molar ratio) of EPC and DMPG (a negatively charged lipid). […] In the absence of peptide, the amount of dye leakage from the EPC/DMPG beads was similar to that for EPC coated beads."}, "[3]": {"test_system": "80:20 (molar ratio) DMPG and DMPC bilayer on porous silica beads", "experiment": "Suspension study: melittin on DMPG/DMPC 80:20 bilayers on fluorescein-containing porous beads", "assay_type": "biochemical", "conditions": "220 μM melittin (FIG. 6 legend prints 220 pM), 25° C.", "method": "as §1\nIn view of the results shown in FIG. 5, the effects of melittin on other mixtures of lipids were examined. […] A 80:20 mixture (molar ratio) of DMPG and DMPC was used to form the lipid bilayers used in this experiment. The increase in fluorescence intensity due to the membrane-melittin interaction, which results in the release of dye from porous beads was about 10 fold. Although this release was not as high as that observed when using TRITON X-100 detergent, it is notable in comparison to the release with α-toxin."}, "[4]": {"test_system": "DMPG lipid bilayer supported on MS-PPE", "experiment": "Superquenching flow cytometric assay for disruption of DMPG lipid bilayer supported on MS-PPE", "assay_type": "biochemical", "conditions": "for quenching of the MS-PPE after addition of peptide / association constant with DMPG (reciprocal of the point of half saturation): 10 μM AQS; for quenching of the MS-PPE after addition of peptide: sMLT 3.8 μM, nMLT 1.6 μM, TRITON X-100 0.25% (w/v); for association constant with DMPG (reciprocal of the point of half saturation): binding curves, flow cytometry", "method": "Lipid bilayers were disrupted by adding TRITON X-100 detergent to the bead suspension to a final concentration of 0.25% (w/v).\nBead suspensions of 2.5×10^5 DMPG-coated MS-PPE in 200 μL of PBS were analyzed using a FACScan flow cytometer (Becton-Dickinson, Sunnyvale, Calif.) with excitation at 488 nm. Fluorescence signals were acquired on FL-1 channel (525 nm) using log amplification and analyzed with the CellQuest software. Kinetic analysis of disruption of supported lipid bilayer by melittin was performed by acquiring real-time data with continuous mixing of samples (10^6 MS-PPE in 800 μl of PBS) using a magnetic stirrer. The raw data were analyzed using IDL Query software developed by Bruce Edwards (Cancer Center, University of New Mexico, Albuquerque, N. Mex.).\nBecause an anionic lipid was used to form a lipid bilayer around MS-PPE, it was expected that MLT will disrupt the DMPG lipid bilayer by such a detergent-like action. This was tested by adding 10 μM AQS to DMPG-coated MS-PPE followed by treatment with one of the following: TRITON X-100 detergent, synthetic MLT (sMLT), or natural MLT (nMLT) and immediately reading the fluorescence by flow cytometry. […] These histograms resemble the ones reported previously for MS-PPE, without a lipid coating, in absence and in presence of AQS.\nFrom FIG. 18, the association constant (corresponding to the reciprocal of the point of half saturation) for nMLT and sMLT with DMPG were 5×10^6 M^−1 and 1.7×10^6 M^−1, respectively. […] Lower concentrations of nMLT, in comparison to sMLT, were required to disrupt the DMPG lipid bilayer. This might be attributed to the fact that nMLT contains some phospholipase A2 (PLA2) as a contaminant. PLA2 has a high affinity for anionic phospholipids, with an association constant of 0.5×10^10 M^−1 (Kim et al., Anal. Chem. 250, 109-116 (1997)), which is about 3000 fold higher than that of MLT. Although PLA2 activity requires calcium, which is not present in the experimental system, it has been reported that even upon addition of EDTA to natural MLT, PLA2 maintains its activity, probably due to formation of a tight complex with calcium with PLA2 (Dempsey, C. E. Biochim. Biophys. Acta 1990, 1031, 143-161).\nThe kinetics of disruption of supported lipid bilayer by MLT were monitored by measuring real-time changes in fluorescence intensity by flow cytometry (FIG. 19). Suspensions of 10^6 DMPG-coated MS-PPE in 800 μL of PBS were treated with AQS at a final concentration of 10 μM, then with either sMLT, TRITON X-100 detergent, or no treatment. […] Treatment with sMLT in the absence of AQS led to an increase in normalized fluorescence (FIG. 19, trace A). This can be attributed to disruption of the lipid bilayer by sMLT, and is consistent with a reversal of the slight quenching of fluorescence caused by the formation of a DMPG lipid bilayer over MS-PPE. Addition of AQS alone to DMPG-coated MS-PPE (FIG. 19, trace C) led to a 20% reduction in fluorescence as reported earlier. Addition of TRITON X-100 detergent to DMPG-coated MS-PPE after the addition of AQS (first dip in trace E, FIG. 19) caused immediate decrease in fluorescence to ˜10% of its original value (second dip in trace E, FIG. 19). In contrast, addition of sMLT, after the addition of AQS, (FIG. 19, trace D) led to a gradual reduction of fluorescence intensity to ˜20% of the original value. Although MLT forms dimers at high concentrations (Dempsey, C. E. Biochim. Biophys. Acta 1990, 1031, 143-161), it is monomeric at the concentrations used in this study. On the other hand, TRITON X-100 detergent forms micelles at the concentration used in this study."}, "[5]": {"test_system": "supported lipid bilayer surrounding a porous bead that contains fluorescein", "experiment": "Kinetics of supported lipid bilayer disruption by α-toxin, pH gradient, flow cytometry", "assay_type": "biochemical", "source_text": "FIGS. 4A-B illustrates the effects of alpha-toxin on lipid bilayer integrity. FIG. 4A graphically illustrates dose-dependent release of fluorescent dye from a lipid bilayer coated microbead after introduction of different concentrations of alpha-toxin, a membrane-associated pore-forming protein from Staphylococcus aureus. The normalized fluorescence intensity (at 520 nm) of the supernatant is plotted versus time for EPC-coated, fluorescein filled porous beads when using different concentrations of α-toxin added. 10% Triton was added after 150 min. FIG. 4B illustrates the kinetics of disrupting a supported lipid bilayer by α-toxin as monitored by recording changes in fluorescence intensity every 2 minutes by flow cytometry. The lipid bilayer surrounded a porous bead that contains a pH-reactive molecule (fluorescein), and the pH outside the beads was adjusted to 11.0, whereas inside the beads the pH was 2.6. As illustrated, increasing amounts of c′-toxin increases the fluorescence emitted from within the beads.\nIn another experiment a lipid bilayer surrounding a porous bead that contains a pH-reactive molecule (fluorescein) was exposed to α-toxin. The pH outside the beads was adjusted to 11.0, whereas inside the beads the pH was 2.6. The kinetics of disruption of supported lipid bilayer by α-toxin were monitored by recording changes in fluorescence intensity every 2 minutes by flow cytometry. For the first 8 minutes there was no significant change in fluorescence intensity (FIG. 4B). However, after 8 minutes there was a gradual increase in fluorescence intensity (FIG. 4B) resulting from insertion of α-toxin into the supported lipid bilayer thus forming channels permeable to hydrogen cations and hydroxyl ions, which reduces the difference in the pH outside and inside the microspheres. […] This can be attributed to insertion of many α-toxin channels at this high concentration leading to disruption of the lipid bilayer and immediate equilibration of the pH inside and outside the porous microspheres."}, "[6]": {"test_system": "EPC lipid bilayer on porous silica beads", "experiment": "Suspension study: disruption of EPC bilayers on fluorescein-containing porous silica beads, release of dye into supernatant", "assay_type": "biochemical", "conditions": "all three concentrations 15, 45 and 250 μg/mL", "method": "Lipid coatings on beads were disrupted using 10% TRITON X-100 detergent. Each sample in micro-centrifuge tubes contained 5 mg of lipid bilayer coated, fluorescein entrapped beads in 200 μL of Tris buffer. Samples were centrifuged and 100 μL aliquots of supernatant were mixed with either 100 μL of Tris buffer or 100 μL of 10% TRITON X-100 detergent in separate centrifuge tubes. The fluorescence intensity of each mixture was immediately (time=0) recorded. Each mixture was mixed with its respective bead sample in centrifuge tube and incubated at 25° C. in the dark. After 30 min, samples were centrifuged and fluorescent intensity of the supernatants was measured. Beads were resuspended in their respective supernatants. Fluorescence intensity was again measured at 90 and 150 min.\nas §1\nPrevious suspension studies on disruption of lipid bilayers have been performed with small unilamellar vesicles where disruption of the lipid bilayer membranes was detected by monitoring the unquenching of a highly concentrated, encapsulated dye. In the present work disruption was monitored via release of fluorescein dye from porous beads, by measuring the increase in fluorescence intensity of the supernatant at 520 nm. Beads were first suspended in Tris buffer containing the disruptor. After selected time periods, beads were sedimented by centrifuging and a portion of the supernatant was taken for the measurement. The measured portion was added back to the bead sample to permit continuous monitoring. The scattering effect that was present in vesicle based studies was minimized by measuring only the supernatant after centrifugation of the beads."}}, "data": [{"compound": "CCCCCCCCCCCCCCCC(=O)OC[C@H](COP(=O)([O-])OCC[N+](C)(C)C)OC(=O)CCCCCCCCCCCCCCC", "note": "[DPPC, 1,2-dipalmitoyl-sn-glycero-3-phosphatidylcholine]", "values": [{"measurement": "fluorescence with quencher relative to MS-PPE and quencher without the lipid", "setting": "[1]", "result": "~10", "unit": "fold"}, {"measurement": "reduction (quenching) of polymer fluorescence of lipid-coated MS-PPE on addition of AQS", "setting": "[1]", "result": "~40", "unit": "%"}]}, {"compound": "CC[C@H](C)[C@H](NC(=O)CN)C(=O)NCC(=O)N[C@@H](C)C(=O)N[C@H](C(=O)N[C@@H](CC(C)C)C(=O)N[C@@H](CCCCN)C(=O)N[C@H](C(=O)N[C@@H](CC(C)C)C(=O)N[C@H](C(=O)N[C@H](C(=O)NCC(=O)N[C@@H](CC(C)C)C(=O)N1CCC[C@H]1C(=O)N[C@@H](C)C(=O)N[C@@H](CC(C)C)C(=O)N[C@H](C(=O)N[C@@H](CO)C(=O)N[C@@H](Cc1c[nH]c2ccccc12)C(=O)N[C@H](C(=O)N[C@@H](CCCCN)C(=O)N[C@@H](CCCNC(=N)N)C(=O)N[C@@H](CCCCN)C(=O)N[C@@H](CCCNC(=N)N)C(=O)N[C@@H](CCC(N)=O)C(=O)N[C@@H](CCC(N)=O)C(N)=O)[C@@H](C)CC)[C@@H](C)CC)[C@@H](C)O)[C@@H](C)O)C(C)C)C(C)C", "note": "[melittin]", "values": [{"measurement": "release of dye from EPC/DMPG coated beads compared with 100% EPC coated beads", "setting": "[2]", "result": "slightly higher"}, {"measurement": "increase in fluorescence intensity due to release of dye", "setting": "[3]", "result": "about 10 fold"}]}, {"compound": "nMLT: natural melittin from Sigma, contains some phospholipase A2 as a contaminant", "values": [{"measurement": "quenching of the MS-PPE after addition of peptide", "setting": "[4]", "result": "comparable to that occurring on addition of TRITON X-100 detergent"}, {"measurement": "association constant with DMPG (reciprocal of the point of half saturation)", "setting": "[4]", "result": "5e+06", "unit": "M⁻¹"}]}, {"compound": "sMLT: synthetic melittin obtained from Sigma", "values": [{"measurement": "quenching of the MS-PPE after addition of peptide", "setting": "[4]", "result": "comparable to that occurring on addition of TRITON X-100 detergent"}, {"measurement": "fluorescence intensity after addition, % of original value (real-time kinetics)", "setting": "[4]; 10^6 DMPG-coated MS-PPE in 800 μL PBS, after 10 μM AQS", "result": "~20", "unit": "%"}, {"measurement": "association constant with DMPG (reciprocal of the point of half saturation)", "setting": "[4]", "result": "1.7e+06", "unit": "M⁻¹"}]}, {"compound": "α-toxin: membrane active pore-forming protein secreted by Staphylococcus aureus, ˜33 kDa", "values": [{"measurement": "concentration at which increase in fluorescence intensity reached its maximum", "setting": "[5]; pH 11.0 outside, pH 2.6 inside beads", "result": 15, "unit": "µg/mL"}, {"measurement": "time without significant change in fluorescence intensity before gradual increase", "setting": "[5]; pH 11.0 outside, pH 2.6 inside beads, read every 2 minutes", "result": 8, "unit": "min"}, {"measurement": "change in fluorescence intensity", "setting": "[5]; α-toxin 45 μg/mL", "result": "did not cause a change in fluorescence intensity different from the baseline"}, {"measurement": "increase in fluorescence intensity after 150 min", "setting": "[6]; 25° C.", "result": "about 3 fold"}, {"measurement": "increase in fluorescence intensity after 150 min", "setting": "[6]; 37° C.", "result": "about 6.5 fold"}]}]}
